Laboratory results: US7291627B2, “Dihydroimidazo[5.1-a]-beta-carboline derivatives, method for their preparation, and their application as a drug” (MACEF, priority 2001, dated 2007)

Key:
JA 657 chicks = assay: Chick sleep/sedation test (IM injection, 90 minute observation); type: in vivo; details: for Sed (sedation time as % of the period) / TA (time to torpor between injection and first stage of sleep) / TS (duration of the first sleep) / Tsed (total sedation time over the period): 90 min observation; for TS (mins) Placebo diff'ce: extension of first sleep compared with test controls
Procedure, shortened: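 JA 657 chicks (~100 g, 12 h light/dark cycle, 25 °C) received 1, 3 or 10 mg/kg IM, two batches of 3 per dose, with water-injected controls. Alertness was scored in 5-min blocks over 90 min with feeding stimulation every 15 min. Recorded measures were time to torpor, first-sleep duration (also as prolongation versus controls) and total sedation time.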

Beagle dogs = assay: Polysomnographic study in the dog (EEG, 4 hours after oral gelule); type: in vivo; details: for Latency: Paradoxal (REM) sleep / Latency: Slow wave sleep (SWS) / Latency: Somnolence / Time passed at stage: Alertness / Time passed at stage: REM / Time passed at stage: SWS / Time passed at stage: Somnolence: oral gelule; for Time passed at stage: Alertness / Time passed at stage: REM / Time passed at stage: SWS / Time passed at stage: Somnolence: four hours of monitoring
Experimental: The dihydroimidazo[5,1-a]-β-carboline derivatives of the invention, in particular those in the form of the methyl sulfonate, (soluble), were tested in chicks, and certain compounds that were active in the chick were administered in single doses to six Beagle dogs of both sexes for a polysomnographic study of at least 4 hours duration.
Polysomnographic tests were carried out for each of the three products from the series, on 6 dogs of both sexes, adults from the certified breeding kennels at HARLAN, 03 Gannat, using stainless steel electrodes surgically implanted for the duration of the test in contact with the frontal bones through the sinus, facing the motor regions of the encephalus. The Nishino et al method adapted by Tafani, Valin et al has been described elsewhere. It comprised recording two traces for eye movements, one trace for muscular movements (concentric electrode in the nape muscles) and two electroencephalographic (EEG) traces. The digital EEG trace was recorded using a Nicollet Schwarzer polygraph or the like (DELTAMED Coherence 2 and 3, MEI Galileo NT) for 4 hours after administering a 00 gelule containing 0, 16 or 48 mg of the test product (i.e. a mean of 0,1 and 3 mg/kg of live weight).
Each dog was monitored for 4 hours twice a day over two days, morning and afternoon, after one week's acclimatization to the monitoring cage, a 1 m^2, 80 cm high stainless steel cage of the SHOR-LINE type. For each dog, monitoring always commenced at the same time. A meal was distributed 30 minutes before starting monitoring.
The polysomnographic traces could differentiate between at least 4 stages for each consecutive 30 second period: awake, somnolence, slow sleep and paradoxal sleep. The latency of the appearance of each of the first nonalert episodes and the duration of each of the stages per 2 hour period were recorded for each dog. Comparing the means allowed the effect of the test products on the sleep microstructure to be studied.

Row | Structure (SMILES) | Sed (sedation time as % of the period) (JA 657 chicks; Dose: 1 mg/kg) | TA (time to torpor between injection and first stage of sleep) (JA 657 chicks; Dose: 1 mg/kg) | TS (duration of the first sleep) (JA 657 chicks; Dose: 1 mg/kg) | Tsed (total sedation time over the period) (JA 657 chicks; Dose: 1 mg/kg) | TS (mins) Placebo diff'ce (JA 657 chicks; Dose: 1 mg/kg) | Sed (sedation time as % of the period) (JA 657 chicks; Dose: 3 mg/kg) | TA (time to torpor between injection and first stage of sleep) (JA 657 chicks; Dose: 3 mg/kg) | TS (duration of the first sleep) (JA 657 chicks; Dose: 3 mg/kg) | Tsed (total sedation time over the period) (JA 657 chicks; Dose: 3 mg/kg) | TS (mins) Placebo diff'ce (JA 657 chicks; Dose: 3 mg/kg) | Sed (sedation time as % of the period) (JA 657 chicks; Dose: 10 mg/kg) | TA (time to torpor between injection and first stage of sleep) (JA 657 chicks; Dose: 10 mg/kg) | TS (duration of the first sleep) (JA 657 chicks; Dose: 10 mg/kg) | Tsed (total sedation time over the period) (JA 657 chicks; Dose: 10 mg/kg) | TS (mins) Placebo diff'ce (JA 657 chicks; Dose: 10 mg/kg) | Latency: Paradoxal (REM) sleep (Beagle dogs; 1 mg) | Latency: Slow wave sleep (SWS) (Beagle dogs; 1 mg) | Latency: Somnolence (Beagle dogs; 1 mg) | Time passed at stage: Alertness (Beagle dogs; 1 mg) | Time passed at stage: REM (Beagle dogs; 1 mg) | also measured
1 | COc1ccc2[nH]c3c(c2c1)CCn1c-3cnc1C.CS(=O)(=O)O [Example 2, 8-methoxy-3-methyl-5,6-dihydroimidazo[5,1-a]-β-carboline methane sulfonate] | 27.8% | 16 min | 3 min | 25 min | 3 min | 69.4% | 8.5 min | 41 min | 62.5 min | 41 min | 92.2% | 7 min | 83 min | 83 min | 83 min | 114 ± 53 min | 44 ± 16.3 min | 40 ± 14.7 min | 136 ± 40.3 min | 13.5 ± 10.6 min | Time passed at stage: SWS (Beagle dogs; 1 mg): 59 ± 20.5 min; Time passed at stage: Somnolence (Beagle dogs; 1 mg): 31 ± 4.6 min; Latency: Paradoxal (REM) sleep (Beagle dogs; 3 mg): 63 ± 21.1 min; Latency: Slow wave sleep (SWS) (Beagle dogs; 3 mg): 45 ± 5.4 min; Latency: Somnolence (Beagle dogs; 3 mg): 37 ± 6.7 min; Time passed at stage: Alertness (Beagle dogs; 3 mg): 123 ± 30.5 min; Time passed at stage: REM (Beagle dogs; 3 mg): 20 ± 9.5 min; Time passed at stage: SWS (Beagle dogs; 3 mg): 60 ± 26.9 min; Time passed at stage: Somnolence (Beagle dogs; 3 mg): 36 ± 15.4 min
2 | CS(=O)(=O)O.Cc1ncc2n1CCc1c-2[nH]c2ccc(Cl)cc12 [Example 13, 8-chloro-3-methyl-5,6-dihydroimidazo[5,1-a]-β-carboline methane sulfonate] | 57.8% | 16.5 min | 33.5 min | 52 min | 33 min | 81.1% | 9.5 min | 73 min | 73 min | 73 min | 95.6% | 4 min | 86 min | 86 min | 85.7 min | 63 ± 28.2 min | 32 ± 11.5 min | 25 ± 11.6 min | 135 ± 44.3 min | 21 ± 13.6 min | Time passed at stage: SWS (Beagle dogs; 1 mg): 57 ± 26.5 min; Time passed at stage: Somnolence (Beagle dogs; 1 mg): 24 ± 2.6 min; Latency: Paradoxal (REM) sleep (Beagle dogs; 3 mg): 56 ± 19.5 min; Latency: Slow wave sleep (SWS) (Beagle dogs; 3 mg): 35 ± 11 min; Latency: Somnolence (Beagle dogs; 3 mg): 27 ± 9.1 min; Time passed at stage: Alertness (Beagle dogs; 3 mg): 122 ± 36.5 min; Time passed at stage: REM (Beagle dogs; 3 mg): 26 ± 13.5 min; Time passed at stage: SWS (Beagle dogs; 3 mg): 61 ± 24.9 min; Time passed at stage: Somnolence (Beagle dogs; 3 mg): 31 ± 7 min
3 | CS(=O)(=O)O.Cc1ncc2n1CCc1c-2n(C)c2ccccc12 [Example 1, 3,11-dimethyl-5,6-dihydroimidazo[5,1-a]-β-carboline methane sulfonate] | 71.7% | 7 min | 56.5 min | 64.5 min | 56 min | 87.2% | 4.5 min | 78.5 min | 78.5 min | 78 min | 96.7% | 1 min | 86 min | 87 min | 85.7 min | 101 ± 80.3 min | 52 ± 24.8 min | 47 ± 19.1 min | 139 ± 69.1 min | 23 ± 19.1 min | latency of the first somnolence (in words) (Beagle dogs; 1 and 3 mg/kg, versus placebo): clearer in the 3 mg/kg dose; Time passed at stage: SWS (Beagle dogs; 1 mg): 51 ± 42.3 min; Time passed at stage: Somnolence (Beagle dogs; 1 mg): 27 ± 10.4 min; Latency: Paradoxal (REM) sleep (Beagle dogs; 3 mg): 50 ± 22.2 min; Latency: Slow wave sleep (SWS) (Beagle dogs; 3 mg): 27 ± 8.0 min; Latency: Somnolence (Beagle dogs; 3 mg): 21 ± 7.1 min; Time passed at stage: Alertness (Beagle dogs; 3 mg): 106 ± 34.7 min; Time passed at stage: REM (Beagle dogs; 3 mg): 29 ± 13.7 min; Time passed at stage: SWS (Beagle dogs; 3 mg): 65 ± 30.2 min; Time passed at stage: Somnolence (Beagle dogs; 3 mg): 40 ± 10.9 min
